Measurements taken from patent US20020016351A1, “New crystals of celecoxib” (priority 2000, published 2002).

Columns and labels:
[1] = bulk density of the crystals; assay type: physicochemical; conditions: typical and characteristic density of the celecoxib crystals
Excerpt: (§1) One of the main disadvantages of the needle-like crystals of Form II mentioned in WO 00/32189 is their low bulk density. It was found, that the crystals of the invention's Form I are distinctly denser in comparison to the crystals of Form II prepared according to the methods as given in International Applications WO 95/15316 and WO 96/37476. The following densities are typical and characteristic for the crystals of Form I and II, respectively: […]

[2] = tap density of the crystals; assay type: physicochemical; conditions: typical and characteristic density of the celecoxib crystals
Excerpt: as §1

Cc1ccc(-c2cc(C(F)(F)F)nn2-c2ccc(S(N)(=O)=O)cc2)cc1 [Form I, 4-[5-(4-methylphenyl)-3-(trifluoromethyl)-1H-pyrazol-1-yl]benzenesulfonamide]
bulk density [1]: ≧about 0.270 g/ml
tap density [2]: ≧about 0.360 g/ml

Cc1ccc(-c2cc(C(F)(F)F)nn2-c2ccc(S(N)(=O)=O)cc2)cc1 [Form II, 4-[5-(4-methylphenyl)-3-(trifluoromethyl)-1H-pyrazol-1-yl]benzenesulfonamide]
bulk density [1]: about 0.130 g/ml
tap density [2]: about 0.180 g/ml
